From patent US11541032B2, “Composition containing sumo inhibitor and application” (CHINA PHARMACEUTICAL UNIVERSITY, priority 2018, dated 2023)

Legend:
Assay type in all cases: cell-based, Rat
FXR signaling pathway = assay: RT-PCR of FXR target gene Shp mRNA in quiescent and TGF-β-activated HSC-T6 cells; settings: for mRNA expression of Shp: activated HSCs, in the presence of SUMO inhibitor SP; for mRNA level of Shp: activated state (TGF-β1 incubation) HSC-T6 cells; for mRNA level of Shp / mRNA level of Shp, an FXR target gene: agonist 5 μM, 12 h; for mRNA level of Shp, an FXR target gene: quiescent HSC-T6 cells
Procedure: (§1) HSC-T6 cells, seeded and cultured in a proper density, were treated with TGF-β([…]) or OCA (5 μM) or GW40064 (5 μM) or WAY-362450 (5 μM) for 12 h before collection.
1) After the cells were cleaned by PBS, 800 μl of a Trizol reagent was added. After repeated blowing by a pipette, the cells were transferred into an EP tube to be subjected to still standing for 5 min at the room temperature.
2) 160 μl of chloroform was added, and violent oscillation was performed for 15 sec. After still standing for 5 min at the room temperature, 12000 g centrifugation was performed for 15 min. The sample was divided into three layers including a bottom layer being a yellow organic phase, an upper layer being a colorless water phase, and a middle layer.
3) 300 μl of the upper layer water phase was carefully transferred into a new tube. 300 μl of isopropanol was added. After uniform mixing through reversing, still standing was performed for 10 min at the room temperature. Then, 12000 g centrifugation was performed for 10 min. Supernatant was abandoned.
4) RNA precipitates were washed by 1.0 ml of precooled 75% ethanol. Then, 12000 g centrifugation was performed for 5 min. Supernatant was abandoned to obtain total RNA. Redissolution was performed by 10 μl of DEPC water. After quantification, dilution was performed to 0.5 μg/μl.
(§2) RNA solutions and kit components were prepared into a system with a total volume of 20 μl according to a system proportion required in the specification, and a program temperature was set for reverse transcription.
Stage 1: reverse transcription at 37° C. for 15 min.
Stage 2: denaturation at 85° C. for 5 s.
Stage 1: initial denaturation at 95° C. for 1 min.
(§3) Stage 2: PCR reaction at 95° C. for 15 sec; for example, at 60° C. for 30 sec for 40 Cycles; and at 72° C. for 30 sec.
Stage 3: dissociation curve analysis at 65 to 95° C., 0.5° C./5s.
(§4) Specific methods were the same as those in section 2.1 in Embodiment 1.
(§5) Specific methods were the same as those in section 2.2 in Embodiment 1.

[1] = tested on: activated HSCs (HSC-T6 cells); assay: RT-PCR of fibrotic-related gene Acta2 mRNA in activated HSCs; settings: after administration of SP
Procedure: as §1, §2, §3, §4, §5

FXR proteins = assay: SUMOylation ELISA of FXR proteins in activated HSCs
Procedure: as §1
After cell nuclear proteins were extracted according to specification requirements of an ELISA detection kit, primary antibodies and nuclear proteins of a cell sample were incubated for 60 min at the room temperature in a plate hole. SUMO specific detection antibodies were then supplemented and added according to the specification requirements. A color sensitizer was further added for color development. Then, absorbance at 655 nm was fast read. Relative quantitative analysis was performed.
as §4
Specific methods were the same as those in section 2.3 in Embodiment 1.

Molecule | mRNA expression of Shp (FXR signaling pathway) | mRNA level of Shp (FXR signaling pathway) | mRNA level of Shp, an FXR target gene (FXR signaling pathway) | expression of fibrotic-related gene Acta2 [1] | SUMOylation level of FXR proteins (FXR proteins)
CC(C)c1onc(-c2c(Cl)cccc2Cl)c1COc1ccc(/C=C/c2cccc(C(=O)O)c2)c(Cl)c1 [GW4064] | significantly up-regulated | none of the FXR agonists OCA, GW4064 and WAY-362450 could significantly up-regulate | could significantly up-regulate | significantly reduced | 
CN[C@@H]1[C@H](O)[C@H](NC)[C@H]2O[C@@]3(O)C(=O)C[C@@H](C)O[C@H]3O[C@@H]2[C@H]1O [SP, spectinomycin] |  |  |  |  | could significantly reduce
CC(C)OC(=O)C1=CN(C(=O)c2ccc(F)c(F)c2)CC(C)(C)c2c1[nH]c1ccccc21 [WAY-362450] | significantly up-regulated | none of the FXR agonists OCA, GW4064 and WAY-362450 could significantly up-regulate | could significantly up-regulate | significantly reduced | 
ginkgolic acid [GA] |  |  |  |  | could significantly reduce
